Like-named read-outs stand apart in the source and are kept apart here.
Legend:
slaughter pigs = experiment: Instrumental meat colour (CIE L*a*b*), Example 1; format: in vivo, pig; details: LS mean ± SEM
slaughter weight pigs = test system: slaughter weight pigs
Protocol: Pigs ([Yorkshire×Swedish Landrace]×Hampshire)(n=10×3 were fed twice daily 2% of their body weight with the respective diets (either low or high methionine diets), water ad libitum.
Two square stimulating electrodes were placed next to one another (not touching) and infront of the recording electrodes, after which the muscle was stimulated at 10, 20, 60, 150 and 200 Hz and the subsequent responses were recorded. Two leads were placed on either side of the abdomen at a position of the last rib to form a “triangle” with the reference electrode and serve to record both respiratory movements as well as sECG signal.
Using electrodes placed either side of the abdomen at the position of the last rib, and a reference electrode placed on the ear, it was possible to create an Einthoven triangle and to record both an ECG (plus heart rate) and respiration rate through diaphragm movements. The recorded signal was assessed in terms of rate and the Q-T interval (time taken for the ventricles to depolarize and repolarize) using Chart analysis software (AD Instruments, Chalgrove, Oxfordshire, UK).
In addition to the sEMG recordings, we were able to obtain non-invasive measurements of the rate of respiration (breaths/min) and the heart rate (bpm) as well as an analysis of the recorded ECG in terms of the time taken for ventricle depolarization and repolarization, the so-called Q-T interval.
Table 1 presents the effects of 1 weeks dietary supplementation with DLM on the respiration and heart rate of 90-100 kg slaughter weight pigs, as well as the Q-T Interval. Values are the mean of a number of pigs, where “n” represents the number of animals per group. (ns) represents a difference between means that was not quite significant.

[1] = MAP 80% O2/20% CO2 (9 days post mortem)
[2] = post (n = 6), after 1 weeks dietary supplementation
[3] = pre (n = 6), before supplementation

In the case of `CSCCC(N)C(=O)O` (racemic) [DLM, DL-methionine], the “Light reflection (L*)” value (slaughter pigs; [1]) is reported as 59.19 ± 1.30 ^A, the “Light reflection (L*)” value (slaughter pigs; Vacuum (9 days post mortem)) is reported as 57.83 ± 1.25 ^A, B and the “Redness (a*)” value (slaughter pigs; Vacuum (9 days post mortem)) is reported as 8.21 ± 0.58 ^A, B. For the same compound, the Saturation index (slaughter pigs; Vacuum (9 days post mortem)) was 11.55 ± 0.67 ^A, B, C, the “Yellowness (b*)” value (slaughter pigs; Vacuum (9 days post mortem)) was 8.11 ± 0.46 ^A, B and the “Heart Rate” value (slaughter weight pigs; [2]) was 110.11 bpm. For the same compound, the “Q-T Interval” value (slaughter weight pigs; [2]) was 242.31 ms, the Respiration (slaughter weight pigs; [2]) was 23.53 breaths/min and the “Difference in Q-T Interval: INCREASE by” value (slaughter weight pigs; post versus pre, P < 0.01) was 8.5% P < 0.01. For the same compound, the “Difference in Heart Rate: DECREASE by” value (slaughter weight pigs; post versus pre, ns) was 9% (ns), the “Difference in Respiration: DECREASE by” value (slaughter weight pigs; post versus pre, ns) was 12% (ns) and the “Heart Rate” value (slaughter weight pigs; [3]) was 121.17 bpm. The “Q-T Interval” value (slaughter weight pigs; [3]) was 223.21 ms and the Respiration (slaughter weight pigs; [3]) was 26.83 breaths/min.

With `CSCCC(O)C(=O)O` (racemic) [HMTBA, 2-hydroxy-4-(methylthio) butanoic acid] the “Light reflection (L*)” value (slaughter pigs; [1]) was 58.73 ± 1.30 ^A, B, the “Light reflection (L*)” value (slaughter pigs; Vacuum (9 days post mortem)) was 55.34 ± 1.25 ^A, B and the “Redness (a*)” value (slaughter pigs; Vacuum (9 days post mortem)) was 8.86 ± 0.58 ^A, C. The Saturation index (slaughter pigs; Vacuum (9 days post mortem)) was 12.22 ± 0.67 ^A and the “Yellowness (b*)” value (slaughter pigs; Vacuum (9 days post mortem)) was 8.39 ± 0.46 ^A.

Reference: US20140314904A1, “PRE-SLAUGHTER DIET INCLUDING METHIONINE” (ADISSEO FRANCE S.A.S., priority 2011, published 2014)
